The structures appear in SMILES notation. Numbers after ± are expanded uncertainties.

The nature of the data set: mn = molality of the nth substance listed, in mol/kg. To be noted: 298.15 K, 101 kPa, Liquid, Westphal Balance.

For the compound `OC[C@H]1O[C@@](CO)(O[C@H]2O[C@H](CO)[C@@H](O)[C@H](O)[C@H]2O)[C@@H](O)[C@@H]1O` [D-sucrose] + O, the mass density (m1 = 0.02) is recorded as 999.72 ± 0.14 kg/m3; the mass density (m1 = 0.06) is recorded as 1004.87 ± 0.14 kg/m3; the mass density (m1 = 0.1) is 1009.9 ± 0.14 kg/m3; the mass density (m1 = 0.15) is 1016.06 ± 0.14 kg/m3; the mass density (m1 = 0.2) worked out at 1022.12 ± 0.14 kg/m3; the mass density (m1 = 0.25) is 1027.95 ± 0.14 kg/m3.
As for `C=CCn1cc[n+](C)c1.[Cl-]` [1-allyl-3-methylimidazolium chloride] + O, the mass density was found to be 998.1 ± 0.14 kg/m3 (m1 = 0.05); 999 ± 0.14 kg/m3 (m1 = 0.1); 999.8 ± 0.14 kg/m3 (m1 = 0.15); 1001.3 ± 0.14 kg/m3 (m1 = 0.25); 1004.8 ± 0.14 kg/m3 (m1 = 0.5); 1007.8 ± 0.13 kg/m3 (m1 = 0.75). Besides, the mass density (m1 = 1) worked out at 1010.3 ± 0.12 kg/m3.

The term mass density denotes the mass of a sample divided by its volume.

The values are drawn from the NIST ThermoML archive (doi:10.1021/je200226z).
